Among the data in PMC5423648, “Acetyl group coordinated progression through the catalytic cycle of an arylalkylamine N-acetyltransferase” (PLoS ONE, 2017) are Kd values, retold here.

In this assay the target is T1, DAT (Drosophila melanogaster, UniProt Q94521).
T1 construct: gene speck; construct, tags and host of the DAT used for ITC not described
The experiment in a line: ITC. It counts as binding.

T1 sequence (Q94521 36-275): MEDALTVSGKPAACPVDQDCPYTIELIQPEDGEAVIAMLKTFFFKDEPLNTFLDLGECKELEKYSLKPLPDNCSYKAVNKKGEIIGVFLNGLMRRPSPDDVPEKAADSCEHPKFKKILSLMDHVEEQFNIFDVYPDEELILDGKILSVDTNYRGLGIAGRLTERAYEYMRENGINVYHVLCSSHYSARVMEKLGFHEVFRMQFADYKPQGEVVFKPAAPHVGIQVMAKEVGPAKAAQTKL

Turning to `CC(=O)SCCNC(=O)CCNC(=O)[C@H](O)C(C)(C)COP(=O)(O)OP(=O)(O)OC[C@H]1O[C@@H](n2cnc3c(N)ncnc32)[C@H](O)[C@@H]1OP(=O)(O)O` [acetyl-CoA], the equilibrium dissociation constant (Kd) came out at 3.7 ± 0.1 µM.

For orientation: Kd means the free concentration of one partner at which half of the binding sites on the other are occupied at equilibrium, for simple one-to-one binding. A high value points to lower affinity.
